Assay results taken from the supplement of paper PMC10307832.

Columns and labels:
Experiment in all cases: relative viability (nuclei count vs DMSO), 5 days (fraction); higher = more cells survive
[1] = compound: O[C@@H](COc1cccc2ncccc12)CN1CCN([C@@H]2c3ccccc3[C@@H]3[C@H](c4ccccc42)C3(F)F)CC1 [Zosuquidar] + Cc1nc(NC(=O)N2CCC[C@H]2C(N)=O)sc1-c1ccnc(C(C)(C)C(F)(F)F)c1 [Alpelisib] (partner 2 µM)
Method in brief: (§1)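 Lung cancer cell lines were seeded in 1536-well plates and dosed by pin tool the next day, with either a single drug or a fixed anchor-drug dose combined with five library-drug doses (not always all listed) spaced in √10 steps. Five days later, one step fixed the cells and stained their nuclei (final 0.05% Triton X-100, 1% formaldehyde, 1 ug/ml Hoechst), and nuclei were counted on 4× images. Relative viability is the nuclei count in treated wells divided by the count in vehicle wells, and each value is the median of duplicate plates.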

[2] = compound: O[C@@H](COc1cccc2ncccc12)CN1CCN([C@@H]2c3ccccc3[C@@H]3[C@H](c4ccccc42)C3(F)F)CC1 [Zosuquidar] + C[C@@H](Oc1cc(-c2cnn(C3CCNCC3)c2)cnc1N)c1c(Cl)ccc(F)c1Cl [Crizotinib] (partner 1 µM)
Method in brief: as §1

[3] = compound: O[C@@H](COc1cccc2ncccc12)CN1CCN([C@@H]2c3ccccc3[C@@H]3[C@H](c4ccccc42)C3(F)F)CC1 [Zosuquidar] + COc1cc2c(Oc3ccc(NC(=O)C4(C(=O)Nc5ccc(F)cc5)CC4)cc3F)ccnc2cc1OCCCN1CCOCC1 [Foretinib] (partner 0.25 µM)
Method in brief: as §1

[4] = compound: O[C@@H](COc1cccc2ncccc12)CN1CCN([C@@H]2c3ccccc3[C@@H]3[C@H](c4ccccc42)C3(F)F)CC1 [Zosuquidar] + COc1cccc2cc(-c3nc([C@H]4CC[C@H](C(=O)O)CC4)n4ncnc(N)c34)[nH]c12 [OSI-027] (partner 0.5 µM)
Method in brief: as §1

Row | Cell Line | relative viability ([1]; first compound 0.01 µM) | relative viability ([1]; first compound 0.03162 µM) | relative viability ([1]; first compound 0.1 µM) | relative viability ([1]; first compound 0.3162 µM) | relative viability ([1]; first compound 1 µM) | relative viability ([2]; first compound 0.01 µM) | relative viability ([2]; first compound 0.03162 µM) | relative viability ([2]; first compound 0.1 µM) | relative viability ([2]; first compound 0.3162 µM) | relative viability ([2]; first compound 1 µM) | relative viability ([3]; first compound 0.01 µM) | relative viability ([3]; first compound 0.03162 µM) | relative viability ([3]; first compound 0.1 µM) | relative viability ([3]; first compound 0.3162 µM) | relative viability ([3]; first compound 1 µM) | relative viability ([4]; first compound 0.01 µM) | relative viability ([4]; first compound 0.03162 µM) | relative viability ([4]; first compound 0.1 µM) | relative viability ([4]; first compound 0.3162 µM) | relative viability ([4]; first compound 1 µM)
1 | NCI-H2023 | 0.601 | 0.636 | 0.6 | 0.548 | 0.613 | 0.593 | 0.679 | 0.743 | 0.741 | 0.606 | 0.936 | 0.759 | 0.689 | 0.998 | 0.99 | 0.354 | 0.401 | 0.325 | 0.665 | 0.427
2 | NCI-H2085 | 0.957 | 0.917 | 0.893 | 1 | 0.977 | 0.822 | 0.823 | 0.899 | 0.792 | 0.874 | 0.855 | 1.02 | 0.837 | 1.01 | 0.981 | 0.707 | 0.779 | 0.468 | 0.84 | 0.746
3 | NCI-H2087 | 1 | 1.28 | 1.2 | 1.19 | 1.15 | 0.839 | 1.05 | 0.817 | 0.915 | 0.836 | 1 |  | 0.992 | 1.21 | 1.12 | 0.607 |  | 0.432 | 0.694 | 0.587
4 | NCI-H2126 | 0.755 | 0.741 | 0.554 | 0.837 | 0.797 | 0.92 | 0.987 | 0.911 | 1.04 | 1.07 | 1.17 | 1.09 |  | 1.18 | 1.23 | 0.736 | 0.982 |  | 0.684 | 0.787
5 | NCI-H2170 | 0.799 | 0.786 | 0.774 | 0.821 | 0.769 | 1.18 | 1.22 | 1.21 | 1.19 | 1.17 | 0.979 | 1.02 | 0.993 | 1.02 | 1.02 | 0.701 | 0.731 | 0.641 | 0.743 | 0.713
6 | NCI-H2228 | 0.562 | 0.716 | 0.881 | 0.679 | 0.859 | 0.524 | 0.598 | 0.44 | 0.338 | 0.607 | 0.933 | 0.438 | 0.995 | 0.768 | 0.714 | 0.614 | 0.635 | 0.604 | 0.745 | 0.428
7 | NCI-H2347 | 1.1 | 0.991 | 0.833 | 1.16 | 0.984 | 0.786 | 0.75 | 0.575 | 0.794 | 0.717 | 1.01 | 1.06 | 0.556 | 0.978 | 0.869 | 0.434 | 0.398 | 0.238 | 0.481 | 0.475
8 | NCI-H2405 | 0.968 | 0.745 | 0.605 | 0.972 | 0.837 | 0.889 | 0.82 | 0.757 | 0.819 | 0.825 | 1.05 | 1.06 | 0.946 | 1.05 | 1.04 | 0.67 | 0.656 | 0.503 | 0.713 | 0.631
